The source made the active and inactive calls. The calls are words filed in the database; no cut-off is given here.
What was measured:
[1] = Solubility of compound in water; type: physicochemical
[2] = Antiproliferative activity against human EAhy926 cells assessed as reduction in cell viability measured after 48 hrs by MTT assay; type: functional, cell-based; settings: EA.hy 926, 48 h
EA.hy 926 [3] = test: Antiangiogenic activity in human EAhy926 cells assessed as inhibition of VEGF-induced cell migration measured after 24 hrs by wound healing assay relative to control; type: functional, cell-based
EA.hy 926 [4] = test: Antiangiogenic activity in human EAhy926 cells assessed as inhibition of VEGF-induced capillary-like tube formation on matrigel after 24 hrs by phase-contrast microscopy; type: functional, cell-based
Gallus gallus = species: Gallus gallus; test: Antiangiogenic activity in chicken chorioallantoic membrane at 30 uM/disc after 48 hrs by microscopic analysis; type: functional

| solubility [1] [µg/mL] | SMILES | IC50 [2] [µM] | inhibition (EA.hy 926 [3]) | inhibition (EA.hy 926 [4]) | Activity (Gallus gallus) |
| --- | --- | --- | --- | --- | --- |
| > 10000 | CC(C)n1c2ccccc2c2cc(CNCCCCNCc3cc4c5ccccc5n(C(C)C)c4cn3)ncc21.Cl | 2.48 |  |  |  |
| > 10000 | Cl.Clc1cccc(Cn2c3ccccc3c3cc(CNCCCCCCNCc4cc5c6ccccc6n(Cc6cccc(Cl)c6)c5cn4)ncc32)c1 | 2.98 |  |  |  |
| > 10000 | Cl.Cn1c2ccccc2c2cc(CNCCCCCCNCc3cc4c5ccccc5n(C)c4cn3)ncc21 | 2.58 |  |  |  |
| > 10000 | CCn1c2ccccc2c2cc(CNCCCCCCNCc3cc4c5ccccc5n(CC)c4cn3)ncc21.Cl | 2.59 |  |  |  |
| > 10000 | CC(C)n1c2ccccc2c2cc(CNCCCCCCNCc3cc4c5ccccc5n(C(C)C)c4cn3)ncc21.Cl | 2.74 |  |  |  |
| > 10000 | Cc1nc(CNCCCCCCNCc2cc3c4ccccc4n(Cc4ccccc4)c3c(C)n2)cc2c3ccccc3n(Cc3ccccc3)c12.Cl | 1.39 |  |  |  |
| > 10000 | CCCCn1c2ccccc2c2cc(CNCCCCNCc3cc4c5ccccc5n(CCCC)c4cn3)ncc21.Cl | 2.17 |  |  |  |
| > 10000 | Cc1nc(CNCCCCCCNCc2cc3c4ccccc4n(CC(C)C)c3c(C)n2)cc2c3ccccc3n(CC(C)C)c12.Cl | 2.68 |  |  |  |
| > 10000 | Cc1nc(CNCCCCNCc2cc3c4ccccc4n(CCCc4ccccc4)c3c(C)n2)cc2c3ccccc3n(CCCc3ccccc3)c12.Cl | 2.11 |  |  |  |
| > 10000 | Cl.c1ccc(CCCn2c3ccccc3c3cc(CNCCCCCCNCc4cc5c6ccccc6n(CCCc6ccccc6)c5cn4)ncc32)cc1 | 2.35 |  |  |  |
| > 10000 | CCCCn1c2ccccc2c2cc(CNCCCCCCNCc3cc4c5ccccc5n(CCCC)c4cn3)ncc21.Cl | 4.82 |  |  |  |
| > 10000 | Cl.c1ccc(Cn2c3ccccc3c3cc(CNCCCNCc4cc5c6ccccc6n(Cc6ccccc6)c5cn4)ncc32)cc1 | > 10 |  |  |  |

The next lines start with the compound.

| SMILES | solubility [1] [µg/mL] | IC50 [2] [µM] | inhibition (EA.hy 926 [3]) | inhibition (EA.hy 926 [4]) | Activity (Gallus gallus) |
| --- | --- | --- | --- | --- | --- |
| CC(C)Cn1c2ccccc2c2cc(CNCCCCCCNCc3cc4c5ccccc5n(CC(C)C)c4cn3)ncc21.Cl | > 10000 | 6.3 |  |  |  |
| CC(C)Cn1c2ccccc2c2cc(CNCCCCNCc3cc4c5ccccc5n(CC(C)C)c4cn3)ncc21.Cl | > 10000 | 3.08 |  |  |  |
| CCn1c2ccccc2c2cc(CNCCCCNCc3cc4c5ccccc5n(CC)c4cn3)ncc21.Cl | > 10000 | > 10 |  |  |  |
| Cl.c1ccc(Cn2c3ccccc3c3cc(CNCCCCCCNCc4cc5c6ccccc6n(Cc6ccccc6)c5cn4)ncc32)cc1 | > 10000 | 4.76 |  |  |  |
| Cl.Fc1ccc(Cn2c3ccccc3c3cc(CNCCCCCCNCc4cc5c6ccccc6n(Cc6ccc(F)cc6)c5cn4)ncc32)cc1 | > 10000 | 4.08 |  |  |  |
| CCCCCCCCn1c2ccccc2c2cc(CNCCCCCNCc3cc4c5ccccc5n(CCCCCCCC)c4cn3)ncc21.Cl | > 10000 | 3.77 |  |  |  |
| Cl.c1ccc(CCCn2c3ccccc3c3cc(CNCCCCNCc4cc5c6ccccc6n(CCCc6ccccc6)c5cn4)ncc32)cc1 | > 10000 | 4.18 |  |  |  |
| CCCCn1c2ccccc2c2cc(CNCCCCCCNCc3cc4c5ccccc5n(CCCC)c4c(C)n3)nc(C)c21.Cl | > 10000 | 2.74 |  |  |  |
| Cl.Fc1ccc(Cn2c3ccccc3c3cc(CNCCCCCNCc4cc5c6ccccc6n(Cc6ccc(F)cc6)c5cn4)ncc32)cc1 | > 10000 | 4.14 |  |  |  |
| Cc1nc(CNCCCCNCc2cc3c4ccccc4n(Cc4cccc(Cl)c4)c3c(C)n2)cc2c3ccccc3n(Cc3cccc(Cl)c3)c12.Cl | > 10000 | 4.81 |  |  |  |
| Cl.Clc1cccc(Cn2c3ccccc3c3cc(CNCCCCCNCc4cc5c6ccccc6n(Cc6cccc(Cl)c6)c5cn4)ncc32)c1 | > 10000 | 1.06 to 1.1 | Dose-dependent effect | Dose-dependent effect | Active |
| Cl.Clc1cccc(Cn2c3ccccc3c3cc(CNCCCCNCc4cc5c6ccccc6n(Cc6cccc(Cl)c6)c5cn4)ncc32)c1 | > 10000 | 6.86 |  |  |  |
| CCCCn1c2ccccc2c2cc(CNCCCNCc3cc4c5ccccc5n(CCCC)c4cn3)ncc21.Cl | > 10000 | > 10 |  |  |  |
| CCCCCCCCn1c2ccccc2c2cc(CNCCCCNCc3cc4c5ccccc5n(CCCCCCCC)c4cn3)ncc21.Cl | > 10000 | 4.86 |  |  |  |
| COc1ccc(/C=C\c2cc(OC)c(OC)c(OC)c2)cc1OP(=O)(O)O [FOSBRETABULIN] |  | 6.4 |  |  |  |

— ChEMBL document CHEMBL3860054, “Design, synthesis and biological evaluation of novel alkyl diamine linked bivalent β-carbolines as angiogenesis inhibitors” (Bioorg Med Chem Lett, 2016)
